pEC50, pIC50: −log10 of the molar value.

One experiment addresses T1, Human recombinant PDE4B2 (Homo sapiens, UniProt Q07343).
T1 construct: purchased BPS Bioscience
In words: Inhibition of PDE4B4 enzyme activity (PDE Glo Assay). It counts as biochemical. As to conditions: human recombinant PDE4B2, 50 nM cAMP; read-out: PDE4 IC50. The procedure, abridged:
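Human recombinant PDE4B2 (0.12 nM) was pre-incubated with compound for 10 min at rt, then 50 nM cAMP was added for 1 hr. After IBMX stop and PKA detection, read-out was Kinase-Glo luminescence. IC50 came from a single-site nonlinear fit of RLU versus concentration.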

Experiment [1] addresses T2, human recombinant beta-2 adrenoreceptors (Homo sapiens, UniProt P07550).
T2 construct: expressed in transfected cells; host or cells: CHO cells
In words: Beta-2 adrenoceptor binding assay ([3H](−)CGP-12177 displacement). The conditions noted are these: CHO cells expressing human beta-2 adrenoreceptors, [3H](−)CGP-12177 0.3 nM, 120 min. The procedure, abridged:
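Displacement of [3H](−)CGP-12177 (0.3 nM) from human recombinant beta-2 receptors expressed in CHO cells, measured after 120 min incubation with test compound. Bound radioligand counted by scintillation; IC50 taken from concentration-response curves as 50% of each compound's maximal inhibition.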

Experiment [2] deals with T2, human recombinant beta-2 adrenoreceptors. The experiment can be described thus: Functional agonism of human recombinant beta-2 adrenoreceptors expressed in CHO cells (cAMP HTRF). The conditions noted are these: CHO cells expressing human beta-2 adrenoreceptors, cAMP elevation, 30 min. It counts as cell-based. The procedure, abridged:
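CHO cells expressing recombinant receptor incubated with compound for 30 min; intracellular cAMP rise over control read by HTRF. EC50 taken as concentration giving 50% of that compound's own maximal response, with full or partial agonism judged against isoproterenol maximum.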

The subject of experiment [3] is LPS-induced TNF-α release from human peripheral blood mononuclear cells (PBMC). The experiment can be described thus: Inhibition of LPS-induced TNF-α release from human PBMC. Format: cell-based. As to conditions: LPS 0.4 ng/mL, 6 h, presence or absence of ICI-118551 not given. The procedure, abridged:
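Ficoll-purified primary PBMC, 100,000 cells/well, pre-incubated 30 min ± 10 μM ICI-118551 (± gives PDE4-only vs PDE4 plus beta-2 activity), then compound 1 h at 37 °C (0.1% DMSO). Stimulated with 0.4 ng/mL LPS for 6 h; supernatant TNF-α by bead cytokine assay; IC50 from single-site fit.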

Experiment [4] deals with LPS-induced neutrophil recruitment into the lungs. In words: Inhibition of LPS-induced neutrophil recruitment into the lungs of Lewis rats. It counts as in vivo. As to conditions: intra-tracheal dose of 300 μg/kg, 2 h before LPS aerosol, BAL 4 h post-LPS. The method, then: Inhibition of Lipoploysaccharide (LPS)-Induced Neutrophil Recruitment into the Lungs of Lewis Rats
Rats were anesthetized with 4% isoflurane, placed in the supine position at an angle of 30°, the mouth opened and the trachea exposed. A 22-gauge needle with a syringe attached was introduced into the trachea and test compound in suspension (200 μl volume per 400 g) was delivered into the lungs from approximately one centimeter above the carina. The rats were allowed to recover and two hrs later conscious animals were placed into a chamber and exposed to aerosolized LPS (1.0 mg/mL) at a rate of 3.0 L/min for 20 min. Rats were euthanized 4 h post-LPS exposure by an overdose of pentobarbital (90 mg/kg) by intra-peritoneal injection. […] The supernatant was discarded, the cells were re-suspended in PBS and total cell counts were determined based on a 10 μl sample of re-suspended cells stained with trypan blue and counts performed using a Countess® cell counter (Invitrogen). […] Manual eye counting was performed to determine the percentage number of cells in the cytospun sample (determined as macrophages, neutrophils, eosinophils, T-lymphocytes and eosinophils) and these values were used to determine the total number of each cell type per sample. Typically experiments contained a minimum of six rats per experimental group and the mean±SEM number of neutrophils was determined for each group. […]

T2 sequence (P07550 whole entry): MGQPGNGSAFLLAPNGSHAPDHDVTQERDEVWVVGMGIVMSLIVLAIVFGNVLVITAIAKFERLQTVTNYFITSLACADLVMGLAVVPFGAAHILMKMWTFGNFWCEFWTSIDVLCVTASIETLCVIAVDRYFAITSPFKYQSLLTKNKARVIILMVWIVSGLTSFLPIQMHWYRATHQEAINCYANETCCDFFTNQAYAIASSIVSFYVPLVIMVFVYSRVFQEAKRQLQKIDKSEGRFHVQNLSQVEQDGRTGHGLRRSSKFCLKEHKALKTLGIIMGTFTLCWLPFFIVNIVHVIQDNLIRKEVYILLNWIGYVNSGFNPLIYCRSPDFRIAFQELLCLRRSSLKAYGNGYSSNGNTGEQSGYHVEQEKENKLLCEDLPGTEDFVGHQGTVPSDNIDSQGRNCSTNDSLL
T1 sequence (Q07343 1-564 isoform Q07343-2): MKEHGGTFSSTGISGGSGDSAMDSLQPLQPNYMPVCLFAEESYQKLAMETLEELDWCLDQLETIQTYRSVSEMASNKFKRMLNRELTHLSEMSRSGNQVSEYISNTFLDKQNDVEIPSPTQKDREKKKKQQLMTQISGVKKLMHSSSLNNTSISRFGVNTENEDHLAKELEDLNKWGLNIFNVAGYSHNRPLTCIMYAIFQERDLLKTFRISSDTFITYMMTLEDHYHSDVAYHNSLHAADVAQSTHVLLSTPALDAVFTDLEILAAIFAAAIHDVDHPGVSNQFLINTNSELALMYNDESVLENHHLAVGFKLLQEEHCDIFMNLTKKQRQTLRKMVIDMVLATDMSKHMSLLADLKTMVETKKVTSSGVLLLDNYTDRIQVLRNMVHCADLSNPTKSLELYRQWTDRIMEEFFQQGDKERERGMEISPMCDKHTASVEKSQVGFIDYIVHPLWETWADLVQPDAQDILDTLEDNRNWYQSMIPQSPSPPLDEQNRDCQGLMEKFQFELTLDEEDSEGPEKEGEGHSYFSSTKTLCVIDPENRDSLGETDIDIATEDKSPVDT

With `COc1cccc(Nc2c(C(N)=O)cnc3c(C)cc(S(=O)(=O)c4cccc(C(=O)Nc5ccc(CCCCCNC[C@H](O)c6ccc(O)c(CO)c6)cc5)c4)cc23)c1` [Example 26, (R)-6-[[3-[[4-[5-[[2-Hydroxy-2-[4-hydroxy-3-(hydroxymethyl)phenyl]ethyl]amino]pentyl]phenyl]carbamoyl]phenyl]sulfonyl]-4-[(3-methoxyphenyl)amino]-8-methylquinoline-3-carboxamide 2,2,2-trifluoroacetate], the pIC50 is over 7.00 on Human recombinant PDE4B2 and under 6.52 in experiment [1]. The pEC50 in experiment [2] is under 6.52; in experiment [3], over 7.00. The same compound came in with a neutrophil inhibition in experiment [4] of at most 40%.
